Test results taken from PMC9028219 (Frontiers in Nutrition, 2022).

Tested on: Sarcoma-180 (S-180) tumor
Details: 20 mg/kg bw i.p.
Description: The S-180 cells were collected from Swiss albino mice harboring 8–10 days old cells from the peritoneal cavity. On day 0, the S-180 cells (1 × 10^7 cells/ml) were injected intra-peritoneal in non-inbred female Swiss albino mice (22–25 g, 8–10 weeks old) selected for the experiment. The next day (Day 1), the animals were randomized and divided into three treatment groups, one positive control group and one vehicle control group containing 5 animals in each group. […] The fourth group was given 5-fluorouracil; positive control at a dose of 20 mg/kg bw i.p. from day 1–9, and the fifth group (control) was administered normal saline (0.2 ml i.p.) for 9 days. On day 12, the animals were sacrificed, and the fluid was collected from each mouse's peritoneal cavity to evaluate tumor growth ([43]). The tumor growth inhibition was calculated using the following formula.
Tumor Growth Inhibition(%)=(Number of tumor cells in control group-Number of tumor cells in the test group)/Number of tumor cells in the control group×100

[1] = days 1-9, evaluated day 12, n = 5

O=c1[nH]cc(F)c(=O)[nH]1 [5 FU, 5-fluorouracil, reference compound]
Tumor growth inhibition (days 1-9, evaluated day 12): 93.75% | Tumor cell count Mean ± S.E [1]: 5 ± 0.28^*** 1 × 10^7 | Tumor volume Mean ± S.E [1]: 0.16 ± 0.01 mL | Tumor weight Mean ± S.E [1]: 0.16 ± 0.01 g
